Experimental data from PubChem BioAssay AID1963848 (Molecular Pharmacology Branch, DTP, NCI, 2024).
“And” between values parts separate entries of the source, which are not always exact repeats. Equal values may be shown once.

Tested on: 379773-124-R-J2-PDC spheroid viability
Test: Anticancer human tumor 379773-124-R-J2-PDC patient-derived endometrial carcinoma cell line growth inhibition [POLQ]
Conditions: spheroids with HUVEC and MSC; for viability, T/C: stronger effect = lower value
Description: Multicellular complex tumor spheroid response to Polymerase (POL) inhibitors (novobiocin, ART-558, RP6685) in combination with a variety of drugs and investigational agents in selected tumor cell lines
The POL inhibitors (novobiocin, ART-558, and RP6685) were evaluated both individually and in combination with standard of care and investigational anticancer small molecules within a complex spheroid model of solid tumors. . Complex spheroids include a stromal component modeled by human endothelial cells (HUVEC) and fibroblasts modeled by human mesenchymal stem cells (MSCs). The concentration ranges selected for each drug and investigational agent were based upon clinically achievable concentrations if the clinical Cmax of the agent was known.
Compounds. The drugs and investigational agents: novobiocin (NSC847541), ART-558 (NSC835418), RP-6685 (NSC848927), peposertib (NSC802822), ceralasertib (NSC780249), elimusertib (NSC800525), camonsertib (NSC841442), AZD-1390 (NSC803789), olaparib (NSC753686), talazoparib (NSC767125), rucaparib (NSC756644), sotorasib (NSC818433), MRTX-1133 (NSC836407), SN-38 (NSC673596), topotecan (NSC609699), epotoside (NSC141540), doxorubicin (NSC123127), gemcitabine (NSC613327), 5-fluorouracil (NSC19893), paclitaxel (NSC125973), vemurafenib (NSC761431), MSA-2 (NSC828583), SN-011 (NSC837082), adavosertib (NSC754352), prexasertib (NSC758257), carboplatin (NSC241240) and oxaliplatin (NSC266046), were obtained from the National Cancer Institute (NCI) Developmental Therapeutics Program Chemical Repository (21). The FDA-approved anticancer drug set is available from the Developmental Therapeutics Program at https://dtp.cancer.gov/organization/dscb/obtaining/. […] The stock solutions were prepared in dimethyl sulfoxide (DMSO, Sigma-Aldrich, St. Louis, MO, cat. D2650), except for the platinum compounds which were prepared in saline (Quality Biological, Gaithersburg, MD, cat. 114-055-101), at 800-fold the tested concentration and stored at -70 degrees C prior to their use. All drugs and investigational agents were tested over a range starting from a high concentration at or near the clinical Cmax and decreasing in half-log increments. If the clinical Cmax for an agent had not been determined, the highest concentration tested was 10 microM, except for SN-38, which was tested at a high concentration of 1 microM.
Cell Culture. All cells were maintained in an incubator at 37 degrees C and 5% CO2 with 95% humidity. The PDC lines were cultured according to standard operating procedures established by the NCI PDMR (https://pdmr.cancer.gov). Table 3 of the manuscript, lists the cell lines along with the number of the three cell types plated to form the mct-spheroids and media for tumor cell growth. After thawing, all PDC lines, except 997537-175-T-J1-PDC and 415267-285-R-J2-PDC, were cultured in Matrigel-coated flasks prepared with a working solution of 1X Ham's F-12 nutrient mix, without supplementation (Thermo Fisher Scientific, cat. 11765054), 100 U/mL penicillin-streptomycin (Thermo Fisher Scientific, cat. 15140122), and 2.5% Matrigel (Corning Inc., Corning, NY, cat. 354248) for the first three passages. The two PDC lines 997537-175-T-J1-PDC and 415267-285-R-J2-PDC were cultured on uncoated flasks. The 857933-349-R-J2-PDC line was cultured in 6C/Colon 1B media containing advanced DMEM/F-12 (Thermo Fisher Scientific, cat. 12634028), 10 mM HEPES (Thermo Fisher Scientific, cat. 15630080), 1X GlutaMAX supplement (Thermo Fisher Scientific, cat. 35050061), 0.1 mg/mL primocin (InvivoGen, San Diego, CA, cat. ant-pm-2), 10% defined fetal bovine serum, heat inactivated (HyClone Laboratories Inc., Logan, UT, cat. SH30070.03HI), 50% L-WRN conditioned media (ATCC, cat. CRL-3276), 1.25 mM N-Acetyl-L-cysteine (Sigma-Aldrich, cat. A9165), 10 mM nicotinamide (Sigma-Aldrich, cat. N0636), 1X B-27 supplement (Thermo Fisher Scientific, cat. 17504044), 1X N-2 supplement (Thermo Fisher Scientific, cat. […]

[1] = curve of first compound, second compound 0.0316 µM
[2] = curve of first compound, second compound 0.1 µM
[3] = curve of first compound, second compound 0.316 µM
[4] = curve of first compound, second compound 1 µM
[5] = curve of first compound, second compound 3.16 µM
[6] = curve of first compound, second compound 10 µM
[7] = second compound 0.0316 µM, first compound 0.0316 µM
[8] = second compound 0.0316 µM, first compound 0.1 µM
[9] = second compound 0.0316 µM, first compound 0.316 µM
[10] = second compound 0.0316 µM, first compound 1 µM
[11] = second compound 0.0316 µM, first compound 3.16 µM
[12] = second compound 0.0316 µM, first compound 10 µM
[13] = second compound 0.1 µM, first compound 0.0316 µM
[14] = second compound 0.1 µM, first compound 0.1 µM
[15] = second compound 0.1 µM, first compound 0.316 µM
[16] = second compound 0.1 µM, first compound 1 µM
[17] = second compound 0.1 µM, first compound 3.16 µM
[18] = second compound 0.1 µM, first compound 10 µM
[19] = second compound 0.316 µM, first compound 0.0316 µM
[20] = second compound 0.316 µM, first compound 0.1 µM
[21] = second compound 0.316 µM, first compound 0.316 µM
[22] = second compound 0.316 µM, first compound 1 µM
[23] = second compound 0.316 µM, first compound 3.16 µM
[24] = second compound 0.316 µM, first compound 10 µM
[25] = second compound 1 µM, first compound 0.0316 µM
[26] = second compound 1 µM, first compound 0.1 µM
[27] = second compound 1 µM, first compound 0.316 µM
[28] = second compound 1 µM, first compound 1 µM
[29] = second compound 1 µM, first compound 3.16 µM
[30] = second compound 1 µM, first compound 10 µM
[31] = second compound 3.16 µM, first compound 0.0316 µM
[32] = second compound 3.16 µM, first compound 0.1 µM
[33] = second compound 3.16 µM, first compound 0.316 µM
[34] = second compound 3.16 µM, first compound 1 µM
[35] = second compound 3.16 µM, first compound 3.16 µM
[36] = second compound 3.16 µM, first compound 10 µM
[37] = second compound 10 µM, first compound 0.0316 µM
[38] = second compound 10 µM, first compound 0.1 µM
[39] = second compound 10 µM, first compound 0.316 µM
[40] = second compound 10 µM, first compound 1 µM
[41] = second compound 10 µM, first compound 3.16 µM
[42] = second compound 10 µM, first compound 10 µM
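Note: spheroids exposed to drugs for seven days before readout.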
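Throughout, for viability, T/C: percent viability relative to DMSO vehicle control taken as 100%.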

Work on `COc1ccc([C@@H](O)c2cc(-c3ncnc4cc(N5CCOCC5)ccc34)c(F)cc2Cl)nn1` + Nc1ccc(C#CCN(C(=O)Cc2ncc(C(F)(F)F)cc2C(F)(F)F)c2ccc(F)cc2)nn1 yielded an IC50 [1] of 9.88 µM, an IC50 [2] of 7.66 µM and an IC50 [3] of 7.78 µM. It also gave an IC50 [4] of 9.09 µM, an IC50 [5] of 7.08 µM and an IC50 [6] of 8.7 µM. It also gave a viability, T/C [7] of 98.9%, a viability, T/C [8] of 104% and a viability, T/C [9] of 101%. The viability, T/C [10] was 83.8%, the viability, T/C [11] was 89.1% and the viability, T/C [12] was 48.4%. For the same compound, the viability, T/C [13] was 90.3%, the viability, T/C [14] was 104% and the viability, T/C [15] was 89.6%. For the same compound, the viability, T/C [16] was 95.2%, the viability, T/C [17] was 77% and the viability, T/C [18] was 41.6%. It also gave a viability, T/C [19] of 98.4%, a viability, T/C [20] of 96.2% and a viability, T/C [21] of 99.3%. The viability, T/C [22] was 91.4%, the viability, T/C [23] was 105% and the viability, T/C [24] was 36.7%. The viability, T/C [25] was 97.4%, the viability, T/C [26] was 83.9% and the viability, T/C [27] was 85.6%. It also gave a viability, T/C [28] of 99.9%, a viability, T/C [29] of 79.5% and a viability, T/C [30] of 47.4%. For the same compound, the viability, T/C [31] was 91.8%, the viability, T/C [32] was 92.1% and the viability, T/C [33] was 82.6%. The viability, T/C [34] was 90.3%, the viability, T/C [35] was 76.4% and the viability, T/C [36] was 38.8%. For the same compound, the viability, T/C [37] was 90.8%, the viability, T/C [38] was 87% and the viability, T/C [39] was 87.8%. The viability, T/C [40] was 85.9%, the viability, T/C [41] was 105% and the viability, T/C [42] was 44.2%.
Work on `CC1COCCN1c1cc(C2(S(C)(=N)=O)CC2)nc(-c2ccnc3[nH]ccc23)n1` (stereo not given) + Cc1cccc(N(C)C(=O)C2C(O)CCN2c2nc(C)cc(C(F)(F)F)c2C#N)c1 yielded an IC50 [1] of 2.06 µM, an IC50 [2] of 1.87 µM and an IC50 [3] of 1.97 µM. For the same compound, the IC50 [4] was 1.84 µM, the IC50 [5] was 2.03 µM and the IC50 [6] was 1.63 µM. It also gave a viability, T/C [7] of 83.3%, a viability, T/C [8] of 84.7% and a viability, T/C [9] of 81.1%. For the same compound, the viability, T/C [10] was 77%, the viability, T/C [11] was 34.2% and the viability, T/C [12] was 5.98%. It also gave a viability, T/C [13] of 89.4%, a viability, T/C [14] of 91.2% and a viability, T/C [15] of 79.7%. The viability, T/C [16] was 81.5%, the viability, T/C [17] was 23.9% and the viability, T/C [18] was 5.96%. The viability, T/C [19] was 87.1%, the viability, T/C [20] was 97% and the viability, T/C [21] was 80.1%. The viability, T/C [22] was 78.6%, the viability, T/C [23] was 30.6% and the viability, T/C [24] was 8.62%. It also gave a viability, T/C [25] of 81.4%, a viability, T/C [26] of 78.8% and a viability, T/C [27] of 79.8%. The viability, T/C [28] was 69.4%, the viability, T/C [29] was 32.7% and the viability, T/C [30] was 6.64%. It also gave a viability, T/C [31] of 84.4%, a viability, T/C [32] of 88.7% and a viability, T/C [33] of 79.2%. For the same compound, the viability, T/C [34] was 61.8%, the viability, T/C [35] was 42.2% and the viability, T/C [36] was 7.75%. For the same compound, the viability, T/C [37] was 84.6%, the viability, T/C [38] was 73.3% and the viability, T/C [39] was 79.2%. For the same compound, the viability, T/C [40] was 62.5%, the viability, T/C [41] was 32.2% and the viability, T/C [42] was 8.39%.
For `O=C(c1cc(Cc2n[nH]c(=O)c3ccccc23)ccc1F)N1CCN(C(=O)C2CC2)CC1`, the viability, T/C (compound 0.0316 µM) was 90.8% and 82.3% and 93.3%, the viability, T/C (compound 0.1 µM) was 87% and 88.1% and 91.8% and the viability, T/C (compound 0.316 µM) was 74.1% and 91.5% and 88.4%. For the same compound, the viability, T/C (compound 1 µM) was 75.1% and 96.4% and 97.2%, the viability, T/C (compound 3.16 µM) was 86.8% and 84.9% and 86.2% and the viability, T/C (compound 10 µM) was 44.5% and 34.6% and 49.8%. The IC50 (curve of compound) was 8.48 µM and 7.08 µM and > 10 µM.
In the case of `COc1cccc(OCCCN)c1-c1cc(Nc2cnc(C#N)cn2)n[nH]1`, the viability, T/C (compound 0.00316 µM) is reported as 71.1% and 84.4% and 94.5%, the viability, T/C (compound 0.01 µM) is reported as 4.45% and 22.9% and 22% and the viability, T/C (compound 0.0316 µM) is reported as 2.75% and 2.85% and 3%. For the same compound, the viability, T/C (compound 0.1 µM) was 2.5% and 2.23% and 2.01%, the viability, T/C (compound 0.316 µM) was 2.05% and 2.52% and 2.6% and the viability, T/C (compound 1 µM) was 1.38% and 1.84% and 2.29%. The IC50 (curve of compound) was 0.00455 µM and 0.00602 µM and 0.00641 µM.
`CC(C)n1c(=O)n(C)c2cnc3cc(F)c(-c4ccc(OCCCN5CCCCC5)nc4)cc3c21` was tested, and the viability, T/C (compound 0.0316 µM) was 77.5% and 102% and 83.2%, the viability, T/C (compound 0.1 µM) was 79.5% and 84.1% and 87.8% and the viability, T/C (compound 0.316 µM) was 78.7% and 88.7% and 68%. The viability, T/C (compound 1 µM) was 76.8% and 87.2% and 74.2%, the viability, T/C (compound 3.16 µM) was 80% and 93.2% and 82.2% and the viability, T/C (compound 10 µM) was 53.6% and 72.2% and 62.8%. The IC50 (curve of compound) was greater than 10 µM.
